Results as given in US8193252B1, “Mesoprogestins (progesterone receptor modulators) for the treatment and prevention of benign hormone dependent gynecological disorders” (Bayer Pharma AG, priority 1999, dated 2012).

Assays:
pregnant rats = test: Abortifacient activity in pregnant rats; type: in vivo, rat; settings: s.c.; treatment days 5-7 of pregnancy, autopsy day 9; * SAS, probit procedure
From the text: The guinea pig is considered as relevant model of human gestation and parturition (Elger W, Fähnrich M, Beier S, Quing S S, Chwalisz K (1987). Endometrial and myometrial effects of progesterone antagonists in pregnant guinea pigs. Am J Obstet Gynecol 157: 1065-1074; Elger W, Neef G, Beier S, Fähnrich M, Gründel M, Heermann J, Malmendier A, Laurent D, Puri C P, Singh M M, Hasan S H, Becker H (1992). Evaluation of antifertility activities of antigestagens in animal model. In: Puri C P and Van Look P F A (eds), Current Concepts in Fertility Regulation and Reproduction. Wiley Eastern Limited, New Delhi, pp. 303-328; Elger W, Faehnrich M, Beier S, Qing S S, Chwalisz K (1986). Mechanism of action of progesterone antagonists in pregnant guinea pigs. Contraception 6: 47-62; Elger W, Chwalisz K, Faehnrich M, Hasan S H, Laurent D, Beier S, Ottow E, Neef G, Garfield R E (1990). Studies on labor-conditioning and labor-inducing effects of antiprogesterones in animal model. In: Garfield R E (eds), Norwell, pp. 153-175.) The mechanism of abortion of antiprogestins in this species is the initiation of labor and finally the expulsion of the conceptus. Abortifacient effects in the rat during very early pregnancy reflect inhibitory effects on nidation rather than initiation of uterine contractions. Studies in the rat model lead to “overestimation” of the potential of antiprogestins to terminate pregnancy in humans. Conversely, in the guinea pig model, irrespective of the antiprogestin doses, there were high rates of ongoing pregnancies similar to the situation in humans (Elger et al., Current Concepts in Fertility Regulation and Reproduction cited above). Furthermore, in both humans and guinea pigs, there is a strong synergism between antiprogestins and prostaglandins with respect the induction of labor (see the articles cited above and Elger W, Beier S (1983). Prostaglandine and Antigestagene für den Schwangerschaftsabbruch (Prostaglandins and antigestagens for pregnancy termination). German Patent DE 3337450 12; Van Look P, Bygdeman M (1989). Antiprogestational steroids: a new dimension in human fertility regulation. Oxford reviews of reproductive medicine 11: 2-60).

[1] = target: T1, progesterone receptor (PR) (Oryctolagus cuniculus, UniProt P06186); test: McPhail test, PR agonistic (progestagenic) activity in estradiol-primed juvenile rabbits; type: in vivo, rabbit; settings: for maximum progestagenic effect relative to progesterone: dose range 0.003-100 mg/rabbit s.c.
T1 construct: effects of PR-modulators in the uterus of estrogen primed immature rabbits (McPhail test); from tissue; host or cells: uterus (endometrium) of estradiol-primed juvenile rabbits, in vivo
T1 sequence (P06186 1-930): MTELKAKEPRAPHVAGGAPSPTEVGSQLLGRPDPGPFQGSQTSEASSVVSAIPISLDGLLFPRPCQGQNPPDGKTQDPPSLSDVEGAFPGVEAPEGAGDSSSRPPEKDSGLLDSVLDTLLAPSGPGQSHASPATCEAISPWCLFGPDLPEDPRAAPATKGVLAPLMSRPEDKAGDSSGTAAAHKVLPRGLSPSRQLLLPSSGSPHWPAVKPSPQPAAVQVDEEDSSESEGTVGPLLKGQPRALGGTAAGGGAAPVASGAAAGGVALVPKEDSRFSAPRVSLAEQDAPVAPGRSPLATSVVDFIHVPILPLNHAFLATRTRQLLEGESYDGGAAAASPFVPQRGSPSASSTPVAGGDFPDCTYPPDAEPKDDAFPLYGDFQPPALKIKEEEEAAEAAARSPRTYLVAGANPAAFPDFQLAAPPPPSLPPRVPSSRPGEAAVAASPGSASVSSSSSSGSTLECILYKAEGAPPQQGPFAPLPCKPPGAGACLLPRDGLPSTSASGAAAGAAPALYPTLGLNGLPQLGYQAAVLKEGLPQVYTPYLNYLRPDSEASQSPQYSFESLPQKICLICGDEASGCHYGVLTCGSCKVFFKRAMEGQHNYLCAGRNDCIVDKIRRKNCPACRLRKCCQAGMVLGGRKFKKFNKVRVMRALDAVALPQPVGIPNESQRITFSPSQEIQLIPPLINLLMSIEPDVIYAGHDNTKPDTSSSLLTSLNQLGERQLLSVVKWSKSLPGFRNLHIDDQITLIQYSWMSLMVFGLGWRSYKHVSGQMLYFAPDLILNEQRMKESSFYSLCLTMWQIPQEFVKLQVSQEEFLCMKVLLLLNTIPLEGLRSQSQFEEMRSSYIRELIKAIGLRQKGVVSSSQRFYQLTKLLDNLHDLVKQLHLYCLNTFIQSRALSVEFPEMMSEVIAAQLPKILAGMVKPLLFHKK
Procedure: In the classical bioassay, the McPhail test, assessing progestagenic and antiprogestagenic effects in rabbits (Selye H., Textbook of Endocrinology, 1947, pp. 345-346), progesterone produces a maximum McPhail score of 4 (by definition).
The PR antagonistic and agonistic properties of mesoprogestins were assessed in estrogen-primed rabbits in the McPhail test according to Selye (Textbook of Endocrinology, 1947, pp. 345-346).

GR = target: T2, GR (Homo sapiens, UniProt P04150); test: Relative binding activity (RBA) at GR, dexamethasone = 100%; settings: by Kaufmann
T2 sequence (P04150 1-777): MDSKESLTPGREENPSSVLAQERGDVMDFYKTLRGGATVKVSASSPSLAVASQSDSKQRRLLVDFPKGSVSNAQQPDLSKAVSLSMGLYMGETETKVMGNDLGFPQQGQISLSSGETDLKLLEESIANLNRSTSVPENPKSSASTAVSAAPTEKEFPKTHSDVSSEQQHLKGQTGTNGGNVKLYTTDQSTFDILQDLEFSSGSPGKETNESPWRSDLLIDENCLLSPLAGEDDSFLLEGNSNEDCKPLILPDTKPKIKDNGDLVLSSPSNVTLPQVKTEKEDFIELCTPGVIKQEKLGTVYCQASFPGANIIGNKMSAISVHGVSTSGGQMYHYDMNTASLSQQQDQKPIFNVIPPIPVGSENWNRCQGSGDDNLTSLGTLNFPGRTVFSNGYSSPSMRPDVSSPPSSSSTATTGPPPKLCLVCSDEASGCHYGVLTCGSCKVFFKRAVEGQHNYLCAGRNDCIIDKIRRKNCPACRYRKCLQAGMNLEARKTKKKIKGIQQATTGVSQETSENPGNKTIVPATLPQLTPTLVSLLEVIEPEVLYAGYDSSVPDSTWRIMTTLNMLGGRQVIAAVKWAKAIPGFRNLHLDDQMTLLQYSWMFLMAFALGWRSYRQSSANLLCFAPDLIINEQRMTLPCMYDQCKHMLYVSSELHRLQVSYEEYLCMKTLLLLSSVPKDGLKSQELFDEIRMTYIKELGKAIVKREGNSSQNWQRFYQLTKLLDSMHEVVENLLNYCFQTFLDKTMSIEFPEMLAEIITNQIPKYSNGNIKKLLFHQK

[2] = 4 days s.c. treatment, absence of progesterone

Row | SMILES | abortifacient activity ED50, rat (pregnant rats) | maximum progestagenic effect relative to progesterone [1] | RBA (%) GR (GR) [%] | dose of maximum effect [1, 2] | maximum effect, McPhail score [1, 2] [McPhail score] | shape of dose response in McPhail test ([1]; absence of progesterone)
1 | COC[C@]1(OC)CC[C@H]2[C@@H]3CCC4=CC(=O)CCC4=C3[C@@H](c3ccc(/C=N/O)cc3)C[C@@]21C [J867, 4-[17β-Methoxy-17α-(methoxymethyl)-3-oxoestra-4,9-dien-11β-yl]benzaldehyd-(1E)-oxim] | 0.65* mg/animal/day | Neither mesoprogestin tested (J1042, J867, J956) reached the maximum effect of progesterone | 78 | – | – | –
2 | CCSC(=O)O/N=C/c1ccc([C@H]2C[C@@]3(C)[C@@H](CC[C@]3(COC)OC)[C@@H]3CCC4=CC(=O)CCC4=C32)cc1 [J1042, 4-[17β-Methoxy-17α-(methoxymethyl)-3-oxoestra-4,9-dien-11β-yl]benzaldehyd-(1E)-[O-(ethylthio)carbonyl]oxim] | >10 mg/animal/day | Neither mesoprogestin tested (J1042, J867, J956) reached the maximum effect of progesterone | 42 | – | – | –
3 | CCNC(=O)O/N=C/c1ccc([C@H]2C[C@@]3(C)[C@@H](CC[C@]3(COC)OC)[C@@H]3CCC4=CC(=O)CCC4=C32)cc1 [J956, 4-[17β-Methoxy-17α-(methoxymethyl)-3-oxoestra-4,9-dien-11β-yl]benzaldehyd-(1E)-[O-(ethylamino)carbonyl]oxim] | 0.64* mg/animal/day | Neither mesoprogestin tested (J1042, J867, J956) reached the maximum effect of progesterone | 154 | 0.3-1 mg/rabbit | 1.5 | biphasic response
